≈ marks a conversion by molar mass, not a printed value. Where “and” joins values, the source holds several entries; their conditions need not be identical. Equal values may be shown once.
Tests used:
Assay in all cases: ≥ marks a high value that may be exact or a test limit, other limits are often not marked, values filed in µg/mL are converted to µM
[1] = test system: Escherichia coli CCARM 1238
[2] = test system: Bacillus subtilis KCTC 3068
[3] = test system: Acinetobacter baumannii CCARM 12005
[4] = test system: Escherichia coli KCTC 2593
[5] = test system: Pseudomonas aeruginosa KCTC 2004
[6] = test system: Pseudomonas aeruginosa CCARM 2095
[7] = test system: Pseudomonas aeruginosa KCTC 1637
[8] = test system: Staphylococcus aureus CCARM 3108
[9] = test system: Escherichia coli CCARM 1229
[10] = test system: Bacillus subtilis KCTC 1021
[11] = test system: Acinetobacter baumannii CCARM 12036
[12] = test system: Salmonella typhimurium CCARM 8009
[13] = test system: Salmonella typhimurium KCTC 1926
[14] = test system: Acinetobacter baumannii CCARM 12035
[15] = test system: Bacillus subtilis KCTC 1022
[16] = test system: Staphylococcus aureus CCARM 3089
[17] = test system: Escherichia coli KCTC 2571
[18] = test system: Staphylococcus aureus CCARM 3090
[19] = test system: Staphylococcus aureus KCTC 1916
[20] = test system: Staphylococcus aureus CCARM 3114
[21] = test system: Acinetobacter baumannii CCARM 12037
[22] = test system: Salmonella typhimurium CCARM 8003
[23] = test system: Pseudomonas aeruginosa CCARM 2003
[24] = test system: Escherichia coli KCTC 1682
[25] = test system: Staphylococcus aureus KCTC 1621
[26] = test system: Pseudomonas aeruginosa KCTC 2513
[27] = test system: Staphylococcus epidermidis KCTC 1917
[28] = test system: Pseudomonas aeruginosa CCARM 2002
[29] = test system: Salmonella typhimurium CCARM 8007
[30] = test system: Pseudomonas aeruginosa CCARM 2163
[31] = test system: Staphylococcus aureus CCARM 3126
[32] = test system: Staphylococcus aureus KCTC 3881
[33] = test system: Bacillus subtilis ISW 1214
Escherichia coli BL21 = test system: Escherichia coli BL21
[34] = test system: Staphylococcus aureus 930918-3
[35] = test system: Neisseria gonorrhoeae FA19
[36] = test system: Listeria monocytogenes EGD
[37] = test system: Neisseria gonorrhoeae F62
Escherichia coli ML-35p = test system: Escherichia coli ML-35p
Candida albicans = test system: Candida albicans
Bacillus subtilis = test system: Bacillus subtilis
[38] = test system: Pseudomonas aeruginosa MR3007
[39] = test system: Cryptococcus neoformans ATCC 34881
[40] = test system: Escherichia coli ATCC 27325
[41] = test system: Micrococcus luteus ATCC 10240
[42] = test system: Staphylococcus aureus ATCC 15752
[43] = test system: Bacillus subtilis KCTC 3038
[44] = test system: Candida albicans ATCC 10231
[45] = test system: Enterococcus faecalis ATCC 29212
[46] = test system: Pseudomonas aeruginosa ATCC 27853
[47] = test system: Saccharomyces cerevisiae ATCC 44774
[48] = test system: Salmonella typhimurium KCTC 2370

`CC[C@H](C)[C@H](NC(=O)CNC(=O)[C@H](CCCN=C(N)N)NC(=O)[C@H](Cc1ccccc1)NC(=O)[C@@H](NC(=O)[C@H](Cc1cnc[nH]1)NC(=O)[C@H](Cc1cnc[nH]1)NC(=O)[C@H](Cc1ccccc1)NC(=O)[C@@H](N)Cc1ccccc1)[C@@H](C)CC)C(=O)N[C@@H](CCCCN)C(=O)N[C@@H](Cc1cnc[nH]1)C(=O)N[C@H](C(=O)NCC(=O)N[C@@H](CCCCN)C(=O)N[C@H](C(=O)N[C@H](C(=O)N[C@@H](Cc1cnc[nH]1)C(=O)N[C@@H](CCCN=C(N)N)C(=O)N[C@@H](CC(C)C)C(=O)N[C@H](C(=O)N[C@H](C(=O)NCC(=O)O)[C@@H](C)O)C(C)C)[C@@H](C)CC)[C@@H](C)O)C(C)C` [FFHHIFRGIKHVGKTIHRLVTG] was tested, and the MIC [1] was 4 µM (≈ 10.4 µg/mL), the MIC [2] was 1 µM (≈ 2.6 µg/mL) and the MIC [3] was 2 µM (≈ 5.2 µg/mL). The MIC [4] was 2 µM (≈ 5.2 µg/mL), the MIC [5] was 2 µM (≈ 5.2 µg/mL) and the MIC [6] was 2 µM (≈ 5.2 µg/mL). The MIC [7] was 1 µM (≈ 2.6 µg/mL), the MIC [8] was 4 µM (≈ 10.4 µg/mL) and the MIC [9] was 4 µM (≈ 10.4 µg/mL). It also gave an MIC [10] of 4 µM (≈ 10.4 µg/mL), an MIC [11] of 2 µM (≈ 5.2 µg/mL) and an MIC [12] of 4 µM (≈ 10.4 µg/mL). It also gave an MIC [13] of 1 µM (≈ 2.6 µg/mL), an MIC [14] of 2 µM (≈ 5.2 µg/mL) and an MIC [15] of 2 µM (≈ 5.2 µg/mL). For the same compound, the MIC [16] was 8 µM (≈ 20.8 µg/mL), the MIC [17] was 2 µM (≈ 5.2 µg/mL) and the MIC [18] was 8 µM (≈ 20.8 µg/mL). It also gave an MIC [19] of 2 µM (≈ 5.2 µg/mL), an MIC [20] of 4 µM (≈ 10.4 µg/mL) and an MIC [21] of 2 µM (≈ 5.2 µg/mL). The MIC [22] was 8 µM (≈ 20.8 µg/mL), the MIC [23] was 2 µM (≈ 5.2 µg/mL) and the MIC [24] was 1 µM (≈ 2.6 µg/mL). The MIC [25] was 1 µM (≈ 2.6 µg/mL), the MIC [26] was 2 µM (≈ 5.2 µg/mL) and the MIC [27] was 1 µM (≈ 2.6 µg/mL). The MIC [28] was 2 µM (≈ 5.2 µg/mL), the MIC [29] was 4 µM (≈ 10.4 µg/mL) and the MIC [30] was 2 µM (≈ 5.2 µg/mL). It also gave an MIC [31] of 4 µM (≈ 10.4 µg/mL) and an MIC [32] of 1 µM (≈ 2.6 µg/mL).

`CC(=O)NCC(=O)N[C@@H](Cc1c[nH]c2ccccc12)C(=O)N[C@@H](CC(C)C)C(=O)N[C@@H](CCC(N)=O)C(=O)N[C@@H](CC(C)C)C(=O)N[C@@H](C)C(=O)N[C@@H](CCC(N)=O)C(=O)N[C@@H](Cc1cnc[nH]1)C(=O)N[C@@H](CC(C)C)C(=O)N[C@@H](CC(C)C)C(=O)N[C@@H](CCC(N)=O)C(=O)N[C@@H](CC(C)C)C(=O)NCC(=O)N[C@@H](CCC(N)=O)C(=O)N[C@@H](Cc1cnc[nH]1)C(=O)N[C@@H](CC(C)C)C(=O)N[C@@H](CC(C)C)C(=O)N[C@@H](CCC(N)=O)C(=O)N[C@@H](CC(C)C)C(=O)N[C@@H](C)C(=O)N[C@@H](CCC(N)=O)C(=O)N[C@@H](CCC(N)=O)C(=O)N[C@@H](CC(C)C)C(=O)N[C@@H](CCCN=C(N)N)C(=O)N[C@@H](CCCN=C(N)N)C(=O)N[C@@H](CCCN=C(N)N)C(N)=O` [GWLQLAQHLLQLGQHLLQLAQQLRRR] was tested, and the MIC [33] was 2.5 µM (≈ 7.9 µg/mL) and the MIC (Escherichia coli BL21) was at least 160 µM.

In the case of `CC(C)C[C@H](N)C(=O)N[C@H]1CSSC[C@@H](C(=O)N[C@H](C(N)=O)C(C)C)NC(=O)[C@H](C(C)C)NC(=O)[C@@H]2CSSC[C@H](NC(=O)[C@H](Cc3ccc(O)cc3)NC1=O)C(=O)N[C@@H](CCCN=C(N)N)C(=O)N[C@@H](CCCN=C(N)N)C(=O)N[C@@H](CCCN=C(N)N)C(=O)N[C@@H](Cc1ccccc1)C(=O)N2` [LCYCRRRFCVCV], the MIC [34] is reported as 0.33 µM and 0.4 µM, the MIC [35] is reported as 1.34 µM (≈ 2.03 µg/mL) and the MIC [36] is reported as 0.26 µM and 0.55 µM. The MIC [37] was 0.64 µM (≈ 0.97 µg/mL), the MIC (Escherichia coli ML-35p) was 0.28 µM and 0.26 µM and the MIC (Candida albicans) was 7.58 µM (≈ 11.5 µg/mL). The MIC (Bacillus subtilis) was 0.22 µM and 0.21 µM and the MIC [38] was 0.2 µM and 0.29 µM.

`CC(C)[C@H](NC(=O)CNC(=O)[C@H](CCC(N)=O)NC(=O)[C@@H](NC(=O)[C@@H](NC(=O)[C@@H]1CCCN1C(=O)[C@H](CCCN=C(N)N)NC(=O)[C@@H](NC(=O)[C@@H](NC(=O)[C@@H](N)CCCN=C(N)N)C(C)C)C(C)C)C(C)C)C(C)C)C(=O)N[C@@H](CCCCN)C(=O)N[C@@H](CCC(N)=O)C(=O)N[C@@H](CCCCN)C(=O)N[C@H](C(=O)N[C@@H](CCCN=C(N)N)C(=O)O)C(C)C` [RVVRPVVQGVKQKVR] gave an MIC [39] of at least 36.6 µM, an MIC [40] of at least 36.6 µM and an MIC [41] of at least 36.6 µM. The MIC [42] was at least 36.6 µM, the MIC [43] was at least 36.6 µM and the MIC [44] was 36.6 µM (≈ 64 µg/mL). It also gave an MIC [45] of over 36.6 µM, an MIC [46] of 9.15 µM (≈ 16 µg/mL) and an MIC [47] of 18.3 µM (≈ 32 µg/mL). The MIC [48] was at least 36.6 µM.
